# In PubChem BioAssay (NCI):
#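 Values below derive from 48-hour exposures of cells grown in 96-well plates, with endpoints linearly interpolated between the two concentrations bracketing the appropriate inhibition level. At the TGI there is no net growth.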
# Key:
# Assay in all cases: NCI-60 cell line screen, 48 h
# [1] = tested on: SK-MEL-28 melanoma
# [2] = tested on: HS 578T breast
# [3] = tested on: A549 NSCLC
# [4] = tested on: CAKI-1 renal
# [5] = tested on: U251 CNS
# [6] = tested on: HCT-116 colon
# [7] = tested on: HCT-15 colon
# [8] = tested on: 786-0 renal
# [9] = tested on: RXF 393 renal
# [10] = tested on: HCC-2998 colon
# [11] = tested on: DU-145 prostate
# [12] = tested on: NCI/ADR-RES ovarian
# [13] = tested on: M14 melanoma
# [14] = tested on: NCI-H522 lung
# [15] = tested on: SK-OV-3 ovarian
# [16] = tested on: SN12C renal
# [17] = tested on: HT29 colon
# [18] = tested on: HOP-92 NSCLC
# [19] = tested on: CCRF-CEM leukemia
# [20] = tested on: SNB-75 CNS
# [21] = tested on: K-562 leukemia
# [22] = tested on: IGROV1 ovarian
# [23] = tested on: MDA-N
# [24] = tested on: HOP-62 NSCLC
# [25] = tested on: MOLT-4 leukemia
# [26] = tested on: BT-549 breast
# [27] = tested on: SW-620 colon
# [28] = tested on: KM12 colon
# [29] = tested on: SK-MEL-5 melanoma
# [30] = tested on: OVCAR-4 ovarian
# [31] = tested on: MDA-MB-435
# [32] = tested on: SF-268 CNS
# [33] = tested on: T-47D breast
# [34] = tested on: MALME-3M melanoma
# [35] = tested on: SF-295 CNS
# [36] = tested on: EKVX NSCLC
# [37] = tested on: NCI-H460 lung
# [38] = tested on: OVCAR-8 ovarian
# [39] = tested on: SR leukemia
# [40] = tested on: UACC-62 melanoma
# [41] = tested on: MDA-MB-231 breast
# [42] = tested on: OVCAR-5 ovarian
# [43] = tested on: UO-31 renal
# [44] = tested on: COLO 205 colon
# [45] = tested on: A498 renal
# [46] = tested on: UACC-257 melanoma
# [47] = tested on: ACHN renal
# [48] = tested on: NCI-H23 lung
# [49] = tested on: OVCAR-3 ovarian
# [50] = tested on: TK-10 renal
# [51] = tested on: MCF7 breast
# [52] = tested on: PC-3 prostate
# [53] = tested on: SF-539 CNS
# [54] = tested on: SNB-19 CNS
# [55] = tested on: HL-60(TB) leukemia
# [56] = tested on: SK-MEL-2 melanoma
# [57] = tested on: LOX IMVI melanoma
# [58] = tested on: NCI-H226 lung
# [59] = tested on: RPMI-8226 leukemia
structure (smiles),measurement,setting,value
c1csc(-c2cc(-c3ccsc3)c(-c3ccsc3)s2)c1,TGI,[1],> 100 µM
same,TGI,[2],> 100 µM
same,TGI,[3],> 100 µM
same,TGI,[4],> 100 µM
same,TGI,[5],> 100 µM
same,TGI,[6],> 100 µM
same,TGI,[7],> 100 µM
same,TGI,[8],> 100 µM
same,TGI,[9],> 100 µM
same,TGI,[10],> 100 µM
same,TGI,[11],> 100 µM
same,TGI,[12],> 100 µM
same,TGI,[13],> 100 µM
same,TGI,[14],> 100 µM
same,TGI,[15],> 100 µM
same,TGI,[16],> 100 µM
same,TGI,[17],> 100 µM
same,TGI,[18],> 100 µM
same,TGI,[19],> 100 µM
same,TGI,[20],> 100 µM
same,TGI,[21],> 100 µM
same,TGI,[22],> 100 µM
same,TGI,[23],> 100 µM
same,TGI,[24],> 100 µM
same,TGI,[25],> 100 µM
same,TGI,[26],> 100 µM
same,TGI,[27],> 100 µM
same,TGI,[28],> 100 µM
same,TGI,[29],> 100 µM
same,TGI,[30],> 100 µM
same,TGI,[31],> 100 µM
same,TGI,[32],> 100 µM
same,TGI,[33],54.2 µM
same,TGI,[34],> 100 µM
same,TGI,[35],> 100 µM
same,TGI,[36],90.8 µM
same,TGI,[37],> 100 µM
same,TGI,[38],> 100 µM
same,TGI,[39],> 100 µM
same,TGI,[40],> 100 µM
same,TGI,[41],> 100 µM
same,TGI,[42],> 100 µM
same,TGI,[43],> 100 µM
same,TGI,[44],> 100 µM
same,TGI,[45],> 100 µM
same,TGI,[46],> 100 µM
same,TGI,[47],> 100 µM
same,TGI,[48],> 100 µM
same,TGI,[49],> 100 µM
same,TGI,[50],> 100 µM
same,TGI,[51],> 100 µM
same,TGI,[52],> 100 µM
same,TGI,[53],> 100 µM
same,TGI,[54],> 100 µM
O=c1n(-c2ccc(Cl)c(Cl)c2)c(=O)n(-c2ccc(Cl)c(Cl)c2)c(=O)n1-c1ccc(Cl)c(Cl)c1,TGI,[1],15.1 µM
same,TGI,[2],10 µM
same,TGI,[3],6.37 µM
same,TGI,[55],> 24.2 µM
same,TGI,[4],7.07 µM
same,TGI,[5],10.6 µM
same,TGI,[6],5.5 µM
same,TGI,[7],6.98 µM
same,TGI,[8],7.84 µM
same,TGI,[9],7.85 µM
same,TGI,[10],> 46.7 µM
same,TGI,[11],12 µM
same,TGI,[12],11.2 µM
same,TGI,[13],13.1 µM
same,TGI,[56],4.53 µM
same,TGI,[14],11.5 µM
same,TGI,[15],3.16 µM
same,TGI,[16],> 31.6 µM
same,TGI,[17],10.9 µM
same,TGI,[18],2.37 µM
same,TGI,[19],4.5 µM
same,TGI,[20],7.75 µM
same,TGI,[21],9.05 µM
same,TGI,[22],15 µM
same,TGI,[23],8.02 µM
same,TGI,[24],12.4 µM
same,TGI,[25],4.6 µM
same,TGI,[26],8.49 µM
same,TGI,[27],10.2 µM
same,TGI,[28],7.14 µM
same,TGI,[29],3.44 µM
same,TGI,[30],12.1 µM
same,TGI,[31],16.5 µM
same,TGI,[32],6.69 µM
same,TGI,[33],12.6 µM
same,TGI,[34],> 27.8 µM
same,TGI,[57],7.16 µM
same,TGI,[35],6.62 µM
same,TGI,[58],9.61 µM
same,TGI,[37],10.7 µM
same,TGI,[38],8.7 µM
same,TGI,[39],8.09 µM
same,TGI,[40],11.2 µM
same,TGI,[41],4.32 µM
same,TGI,[42],8.91 µM
same,TGI,[43],9.73 µM
same,TGI,[44],1.95 µM
same,TGI,[45],7.52 µM
same,TGI,[46],5.73 µM
same,TGI,[47],6.43 µM
same,TGI,[48],4.91 µM
same,TGI,[49],13.5 µM
same,TGI,[50],17.3 µM
same,TGI,[51],5.03 µM
same,TGI,[52],4.72 µM
same,TGI,[53],2.77 µM
same,TGI,[54],14.2 µM
NNC1=Nc2ccc(Cl)cc2C(=S)N2CSCC12 (stereo unspecified),TGI,[1],> 100 µM
same,TGI,[2],> 100 µM
same,TGI,[3],> 100 µM
same,TGI,[4],> 100 µM
same,TGI,[5],> 100 µM
same,TGI,[6],> 100 µM
same,TGI,[7],> 100 µM
same,TGI,[8],> 100 µM
same,TGI,[9],> 100 µM
same,TGI,[10],> 100 µM
same,TGI,[11],> 100 µM
same,TGI,[12],> 100 µM
same,TGI,[13],> 100 µM
same,TGI,[56],> 100 µM
same,TGI,[14],> 100 µM
same,TGI,[15],> 100 µM
same,TGI,[16],> 100 µM
same,TGI,[17],> 100 µM
same,TGI,[19],> 100 µM
same,TGI,[20],> 100 µM
same,TGI,[21],> 100 µM
same,TGI,[22],> 100 µM
same,TGI,[23],> 100 µM
same,TGI,[24],> 100 µM
same,TGI,[25],> 100 µM
same,TGI,[26],> 100 µM
same,TGI,[27],> 100 µM
same,TGI,[28],> 100 µM
same,TGI,[29],> 100 µM
same,TGI,[30],> 100 µM
same,TGI,[31],> 100 µM
same,TGI,[32],> 100 µM
same,TGI,[33],> 100 µM
same,TGI,[34],> 100 µM
same,TGI,[57],> 100 µM
same,TGI,[35],> 100 µM
same,TGI,[36],> 100 µM
same,TGI,[58],> 100 µM
same,TGI,[37],> 100 µM
same,TGI,[38],> 100 µM
same,TGI,[39],> 100 µM
same,TGI,[40],> 100 µM
same,TGI,[41],> 100 µM
same,TGI,[42],> 100 µM
same,TGI,[43],> 100 µM
same,TGI,[59],> 100 µM
same,TGI,[44],> 100 µM
same,TGI,[45],> 100 µM
same,TGI,[46],> 100 µM
same,TGI,[47],> 100 µM
same,TGI,[49],> 100 µM
same,TGI,[50],> 100 µM
same,TGI,[51],> 100 µM
same,TGI,[52],> 100 µM
same,TGI,[54],> 100 µM
